Test results: paper PMC6591251, “Discovery of potent necroptosis inhibitors targeting RIPK1 kinase activity for the treatment of inflammatory disorder and cancer metastasis” (Cell Death & Disease, 2019)
“Also recorded” adds a separate entry of the source.

Tests used:
B16-F10 cells = assay: Lung metastasis model of melanoma cells; type: in vivo, C57BL/6 mice; conditions: 5 mg/kg ip pre-treatment; 14 days
Experimental: (§1) Studies have shown that RIPK1 kinase activity is involved in the promotion of tumor metastasis through death receptor 6-dependent necroptosis of endothelial cells[22] or VEGF-dependent activation of vascular permeability. We thus evaluated the therapeutic effect of PK68 on lung metastasis of mouse melanoma B16-F10 cells in vivo. […] After 2 weeks, the metastasis of B16-F10 cells was measured by histological analysis and assessed as the number of metastasis nodules in the lung. […] Two weeks after intravenous injection of RFP-LL/2 cells, RFP^+ LL/2 cells were isolated from the tumor tissues by flow cytometer sorting and no signal of phosphorylated RIPK1 was detected in these tumors cells (Supplementary Fig. 22). […] Further, we evaluated the effect of PK68 on the tumor cell transmigration across the cultured endothelium. […]
C57BL/6 mice bearing B16-F10 cells (a, b) or RFP-labeled LL/2 cells (c, d) were treated with vehicle, PK68 (5 mg/kg) or Nec-1s (5 mg/kg) as described in the Materials and methods. a, b Tumor metastasis of B16-F10 was measured by the numbers of metastasis nodules and histological analysis. […] The numbers of metastasis nodules on lung surfaces (b) in the metastasis model of B16-F10 were counted with the microscope. c, d Tumor metastasis of RFP-labeled LL/2 was calculated by RFP […] intensity. […]

[1] = tested on: B16-F10 or RFP-LL/2 cells; assay: Proliferation rate and invasion ability without endothelial monolayer; type: cell-based, mouse; conditions: B16-F10 or RFP-LL/2, in vitro
Experimental: as §1, with “22). Six hours after intravenous injection of RFP-LL/2 cells into C57BL/6 mice, the RFP-LL/2 cells have extravasated through blood vessels into the lung (Supplementary Fig. 23).” for “22).”, “endothelium. We isolated CD31^+ endothelial cells from the lungs and performed the transendothelial migration assay as previously reported.” for “endothelium.”
(A-B) B16-F10 and RFP-LL/2 cells were pretreated with indicated compounds for 1h and then cell viability was measured by cell Titer-Glo. (C) B16-F10 and RFP-LL/2 cells were pre-treated with indicated compounds and invasion ability was measured by the transwell assay.

RFP-LL/2 cells = assay: Early metastasis/extravasation of tumor cells, 6 h after injection; type: in vivo, C57BL/6 mice; conditions: 5 mg/kg ip
Experimental: as §1
Melanoma B16-F10 cells (0.5 × 10^6 cells) or RFP-labeled lung carcinoma LL/2 cells (0.3 × 10^6 cells) were injected into C57BL/6 mice in a volume of 200 μl PBS via the tail intravenous injection. […] The lung metastasis of B16-F10 cells in mice was determined by accounting the number of metastasis nodules with a dissecting microscope (Leica) and histologic analysis. The lung metastasis of LL/2 cells in mice was analyzed by measuring RFP fluorescence intensities with the PerkinElmer IVIS Lumina II. […]

[2] = 14-day preliminary toxicity, daily oral gavage; type: in vivo, C57BL/6 mice
Experimental: Data represent mean value ± standard deviation. b Plasma pharmacokinetic parameters of PO and IV. c, d C57BL/6 mice (n = 5) were treated with the indicated daily oral gavage dosing of PK68 for successive 14 days. Body weight (c) and hematoxylin-eosin (H&E) staining (d) of mice were analyzed. Control mice received an equal amount of vehicle. Magnification: ×40. Data represent mean value ± standard deviation TEXT PRINTED IN THE PICTURE: (b) no label printed: Tmax (hr): 0.5 (PO (Gavage)); Cmax (ng/mL): 2423 (PO (Gavage)); AUC0-24 (ng/mL*hr): 4821 (PO (Gavage)); AUC0-24 (ng/mL*hr): 1588 (IV (Bolus)); AUCINF (ng/mL*hr): 4897 (PO (Gavage)); AUCINF (ng/mL*hr): 1590 (IV (Bolus)); t1/2 (hr): 1.3 (PO (Gavage)); t1/2 (hr): 1.0 (IV (Bolus)); MRT (hr): 1.8 (PO (Gavage)); MRT (hr): 0.8 (IV (Bolus)); CL (mL/hr/kg): 1258 (IV (Bolus)); CL (mL/min/kg): 21 (IV (Bolus)); Vss (mL/kg): 1009 (IV (Bolus)); Vss (L/kg): 1.0 (IV (Bolus)); F(%): 61 (PO (Gavage)) DOUBTS OF THE COPYIST ABOUT THIS PICTURE: Panel b prints no substance label with the PK table. The name PK68 is printed only in panels c and d, so the label is left empty.
Judging by the PK time curve, the observed plasma levels of PK68 were above its EC50 over a period of 8 h. […] These doses were meant to determine the preliminary toxicity effects of PK68 (Fig. 6c). […] We further performed histology of various tissues from mice that had received 14-day treatment of PK68.

[3] = 5 and 25 mg/kg, daily oral gavage, 14 days

SMILES: CC(=O)Nc1nc2ccc(-c3cnc(C)c(NC(=O)OC4CCCCC4)c3)cc2s1 [PK68, cyclohexyl (5-(2-acetamidobenzo[d]thiazol-6-yl)-2-methylpyridin-3-yl)carbamate]
- number of pulmonary metastasis nodules (B16-F10 cells): significantly reduced
- proliferation rate and invasion ability [1]: no obvious influence
- number of RFP-LL/2 cells in the lung 6 h after injection (RFP-LL/2 cells): decreased number
- body weight and behavior [2, 3]: normal body weight and behavior
- tolerability [2, 3]: well tolerated
- toxicity in mice ([2]; 14-day course, 25 mg/kg): no obvious toxicity; also recorded: no detectable toxicity
- histology of lung, liver, and heart ([2]; 14-day treatment): normal morphology
